Assays:
Assay type in all cases: cell-based, human
[1] = system: phospho-cofilin (serine 3); test: Western blot of phospho-cofilin in hCMEC/D3 monolayers; conditions: TNF-alpha 20 ng/mL, 24 h, western blot normalized to GAPDH, p<0.05
phospho-dynamin = test: Western blot of phospho-dynamin in hCMEC/D3 monolayers; conditions: TNF-alpha 20 ng/mL, 24 h, western blot normalized to GAPDH, p<0.05
phospho-IRS (serine 307) = test: Western blot of phospho-IRS in hCMEC/D3 monolayers; conditions: TNF-alpha 20 ng/mL, 24 h, immunoblot normalized to GAPDH, p<0.01
hCMEC/D3 monolayers = test: Confocal microscopy of FITC-Aβ42 uptake in hCMEC/D3 monolayers; conditions: TNF-alpha 20 ng/mL

Substance: tumor necrosis factor-alpha [TNF-alpha]
- decrease of phospho-cofilin expression compared to control cells [1]: approximately 2 fold
- increase in phospho-dynamin levels compared to control cells (phospho-dynamin): ~3 fold
- increase in phospho-IRS expression (serine 307) (phospho-IRS (serine 307)): 3 fold
- FITC-Aβ42 fluorescence by confocal microscopy in comparison to control cells (hCMEC/D3 monolayers): increased FITC-Aβ42 fluorescence
